Laboratory results: patent US8399501B2, “Crystalline alkoxyimidazol-1-ylmethyl biphenyl carboxylic acid and methods for preparing thereof” (Theravance, Inc., priority 2010, dated 2013)
Values belong to the compound of their own block, whether it stands above or below them.

Experiment: Solid state stability assessment (storage at 40° C. with desiccant, impurities by HPLC)
Type: physicochemical
Conditions: for % M + 28 (ethyl ester imidazole impurity, HPLC area percentage) / % M − 28 (acid dihydroimidazole impurity, HPLC area percentage) / Δ % M + 28 (increase relative to time zero) / Δ % M − 28 (increase relative to time zero): closed vials, Molecular Sieve 4A dessicant
Experimental: Samples of the crystalline 4′-{2-ethoxy-4-ethyl-5-[((S)-2-mercapto-4-methylpentanoyl-amino)methyl]imidazol-1-ylmethyl}-3′-fluorobiphenyl-2-carboxylic acid, the micronized crystalline compound, and the slurried micronized crystalline compound, about 15 mg each, were stored in multiple closed vials at 40° C. (with 1 g Molecular Sieve 4A dessicant included). At specific intervals, the entire contents of representative vials were analyzed by the following HPLC method:
Column: Agilent Zorbox SB-C18, 4.6×250 mm, 5 μm (Part No. 880975-902). Mobile Phase A: 80% water, 20% MeCN, 0.01% TFA. Mobile Phase B: 20% water, 80% MeCN, 0.01% TFA. Flow rate: 1 mL/min. Injection Volume: 20 μL. Detector: 225 nm.
Samples were prepared as 0.2-0.3 mg/mL stock solutions in 40% MeOH and 60% MeCN in water, depending on the solubility, for injection onto the HPLC. The amount of 4′-{2-ethoxy-4-ethyl-5-[(2-mercapto-4-methylpentanoylamino)methyl]imidazol-1-ylmethyl}-3′-fluorobiphenyl-2-carboxylic acid ethyl ester (M+28) and 4′-{4-ethyl-5-[(2-mercapto-4-methylpentanoylamino)methyl]-2-oxo-2,3-dihydroimidazol-1-ylmethyl}-3′-fluorobiphenyl-2-carboxylic acid (M−28) present were determined by HPLC area percentage (% AUC or area/area %).

[1] = 2 weeks at 40° C., listed as Ex. 1
[2] = 4 weeks at 40° C., listed as Ex. 1
[3] = 2 weeks at 40° C., listed as Ex. 2
[4] = 4 weeks at 40° C., listed as Ex. 2
[5] = 2 weeks at 40° C., listed as Ex. 3
[6] = 2 weeks at 40° C., listed as stable micronized acid imidazole
[7] = 4 weeks at 40° C., listed as Ex. 3
[8] = 4 weeks at 40° C., listed as stable micronized acid imidazole

% M + 28 (ethyl ester imidazole impurity, HPLC area percentage) [1]: 0.05%
% M − 28 (acid dihydroimidazole impurity, HPLC area percentage) [1]: 0.04%
Δ % M + 28 (increase relative to time zero) [1]: 0.05%
Δ % M − 28 (increase relative to time zero) [1]: −0.01%
% M + 28 (ethyl ester imidazole impurity, HPLC area percentage) [2]: 0.05%
% M − 28 (acid dihydroimidazole impurity, HPLC area percentage) [2]: 0.05%
Δ % M + 28 (increase relative to time zero) [2]: 0.05%
Δ % M − 28 (increase relative to time zero) [2]: 0%
% M + 28 (ethyl ester imidazole impurity, HPLC area percentage) (T = 0, 40° C., listed as Ex. 1): 0%
% M − 28 (acid dihydroimidazole impurity, HPLC area percentage) (T = 0, 40° C., listed as Ex. 1): 0.05%
SMILES: CCOc1nc(CC)c(CNC(=O)[C@@H](S)CC(C)C)n1Cc1ccc(-c2ccccc2C(=O)O)cc1F [Example 1, 4′-{2-Ethoxy-4-ethyl-5-[((S)-2-mercapto-4-methylpentanoylamino)methyl]imidazol-1-ylmethyl}-3′-fluorobiphenyl-2-carboxylic Acid]

Δ % M + 28 (increase relative to time zero) (2 weeks at 40° C.): about 0.30%
Δ % M − 28 (increase relative to time zero) (2 weeks at 40° C.): about 0.38%
% M + 28 (ethyl ester imidazole impurity, HPLC area percentage) [3]: 0.40%
% M − 28 (acid dihydroimidazole impurity, HPLC area percentage) [3]: 0.47%
Δ % M + 28 (increase relative to time zero) [3]: 0.30%
Δ % M − 28 (increase relative to time zero) [3]: 0.38%
% M + 28 (ethyl ester imidazole impurity, HPLC area percentage) [4]: 0.44%
% M − 28 (acid dihydroimidazole impurity, HPLC area percentage) [4]: 0.61%
Δ % M + 28 (increase relative to time zero) [4]: 0.34%
Δ % M − 28 (increase relative to time zero) [4]: 0.52%
% M + 28 (ethyl ester imidazole impurity, HPLC area percentage) (T = 0, 40° C., listed as Ex. 2): 0.10%
% M − 28 (acid dihydroimidazole impurity, HPLC area percentage) (T = 0, 40° C., listed as Ex. 2): 0.09%
SMILES: CCOc1nc(CC)c(CNC(=O)[C@@H](S)CC(C)C)n1Cc1ccc(-c2ccccc2C(=O)O)cc1F [Example 2, 4′-{2-ethoxy-4-ethyl-5-[((S)-2-mercapto-4-methylpentanoylamino)-methyl]imidazol-1-ylmethyl}-3′-fluorobiphenyl-2-carboxylic acid]

Δ % M + 28 (increase relative to time zero) (2 weeks at 40° C.): about 0.01%
Δ % M − 28 (increase relative to time zero) (2 weeks at 40° C.): about 0.05%
% M + 28 (ethyl ester imidazole impurity, HPLC area percentage) [5]: 0.07%
% M − 28 (acid dihydroimidazole impurity, HPLC area percentage) [5]: 0.20%
Δ % M + 28 (increase relative to time zero) [5]: 0.01%
Δ % M − 28 (increase relative to time zero) [5]: 0.05%
Δ % M + 28 (increase relative to time zero) [6]: ≤ 0.1%
Δ % M − 28 (increase relative to time zero) [6]: ≤ 0.1%
Δ % M + 28 (increase relative to time zero) (4 weeks at 40° C.): about 0.02%
Δ % M − 28 (increase relative to time zero) (4 weeks at 40° C.): about 0.09%
% M + 28 (ethyl ester imidazole impurity, HPLC area percentage) [7]: 0.08%
% M − 28 (acid dihydroimidazole impurity, HPLC area percentage) [7]: 0.24%
Δ % M + 28 (increase relative to time zero) [7]: 0.02%
Δ % M − 28 (increase relative to time zero) [7]: 0.09%
Δ % M + 28 (increase relative to time zero) [8]: ≤ 0.1%
Δ % M − 28 (increase relative to time zero) [8]: ≤ 0.1%
% M + 28 (ethyl ester imidazole impurity, HPLC area percentage) (T = 0, 40° C., listed as Ex. 3): 0.06%
% M − 28 (acid dihydroimidazole impurity, HPLC area percentage) (T = 0, 40° C., listed as Ex. 3): 0.15%
chemical degradation by HPLC after storage (about 40° C. for at least 2 weeks, with a desiccant such as molecular sieves): minimal chemical degradation
SMILES: CCOc1nc(CC)c(CNC(=O)[C@@H](S)CC(C)C)n1Cc1ccc(-c2ccccc2C(=O)O)cc1F [Example 3, 4′-{2-ethoxy-4-ethyl-5-[((S)-2-mercapto-4-methylpentanoylamino)methyl]imidazol-1-ylmethyl}-3′-fluorobiphenyl-2-carboxylic acid]
